Key:
[1] = target: T1, HiBit-BRM fusion protein (Homo sapiens, UniProt P51531); assay: HiBiT-BRM cell-based degradation assay (Nano-Glo HiBiT Lytic Detection); conditions: stable HeLa cell line expressing HiBiT-BRM, 24 h incubation; for BRM HiBit Degradation Maximum (%): top dose 30 μM; for DC50: read-out: BRM HiBit Degradation IC50
T1 construct: expressed in transfected cells
Procedure: (§1) Procedure: A stable HeLa cell line expressing HiBiT-BRM was generated. On day 0, 5000 cells were seeded in 40 μL of media into each well of 384-well cell culture plates. On day 1, cells were treated with 120 nL DMSO or 120 nL of 3-fold serially DMSO-diluted compounds (10 points in duplicate with 30 μM as final top dose). Subsequently plates were incubated for 24 h in a standard tissue culture incubator and equilibrated at room temperature for 15 minutes. Nano-Glo HiBiT Lytic Detection System (Promega N3050) reagent was freshly prepared and 20 ul was added to each well. Upon addition of this LgBit-containing reagent, the HiBiT and LgBiT proteins associate to form the luminescent NanoBiT luciferase. The plates were shaken for 10 minutes at room temperature and the bioluminescence read using an EnVision plate reader (PerkinElmer).
(§2) The degradation % was calculated using the following formula: % degradation=100%−100%×(LumSample−LumLC)/(LumHC−LumLC). DMSO treated cells are employed as High Control (HC) and 2 μM of a known BRM/BRG1 degrader standard treated cells are employed as Low Control (LC).

[2] = target: T2, HiBit-BRG1 fusion protein (Homo sapiens, UniProt P51532); assay: HiBiT-BRG1 cell-based degradation assay (Nano-Glo HiBiT Lytic Detection); conditions: stable HeLa cell line expressing HiBit-BRG1 and LgBit, 24 h incubation; for Dmax: top dose 30 μM, read-out: BRG1 HiBit Degradation Maximum (%); for DC50: read-out: BRMG1 HiBit Degradation IC50
T2 construct: expressed in transfected cells
Procedure: as §1
For measurement of BRG1 degradation, a stable HeLa cell line expressing HiBit-BRG1 and LgBit was generated. The same protocol as above was then followed.
as §2

T1 sequence (P51531 whole entry, the tested form may be a part): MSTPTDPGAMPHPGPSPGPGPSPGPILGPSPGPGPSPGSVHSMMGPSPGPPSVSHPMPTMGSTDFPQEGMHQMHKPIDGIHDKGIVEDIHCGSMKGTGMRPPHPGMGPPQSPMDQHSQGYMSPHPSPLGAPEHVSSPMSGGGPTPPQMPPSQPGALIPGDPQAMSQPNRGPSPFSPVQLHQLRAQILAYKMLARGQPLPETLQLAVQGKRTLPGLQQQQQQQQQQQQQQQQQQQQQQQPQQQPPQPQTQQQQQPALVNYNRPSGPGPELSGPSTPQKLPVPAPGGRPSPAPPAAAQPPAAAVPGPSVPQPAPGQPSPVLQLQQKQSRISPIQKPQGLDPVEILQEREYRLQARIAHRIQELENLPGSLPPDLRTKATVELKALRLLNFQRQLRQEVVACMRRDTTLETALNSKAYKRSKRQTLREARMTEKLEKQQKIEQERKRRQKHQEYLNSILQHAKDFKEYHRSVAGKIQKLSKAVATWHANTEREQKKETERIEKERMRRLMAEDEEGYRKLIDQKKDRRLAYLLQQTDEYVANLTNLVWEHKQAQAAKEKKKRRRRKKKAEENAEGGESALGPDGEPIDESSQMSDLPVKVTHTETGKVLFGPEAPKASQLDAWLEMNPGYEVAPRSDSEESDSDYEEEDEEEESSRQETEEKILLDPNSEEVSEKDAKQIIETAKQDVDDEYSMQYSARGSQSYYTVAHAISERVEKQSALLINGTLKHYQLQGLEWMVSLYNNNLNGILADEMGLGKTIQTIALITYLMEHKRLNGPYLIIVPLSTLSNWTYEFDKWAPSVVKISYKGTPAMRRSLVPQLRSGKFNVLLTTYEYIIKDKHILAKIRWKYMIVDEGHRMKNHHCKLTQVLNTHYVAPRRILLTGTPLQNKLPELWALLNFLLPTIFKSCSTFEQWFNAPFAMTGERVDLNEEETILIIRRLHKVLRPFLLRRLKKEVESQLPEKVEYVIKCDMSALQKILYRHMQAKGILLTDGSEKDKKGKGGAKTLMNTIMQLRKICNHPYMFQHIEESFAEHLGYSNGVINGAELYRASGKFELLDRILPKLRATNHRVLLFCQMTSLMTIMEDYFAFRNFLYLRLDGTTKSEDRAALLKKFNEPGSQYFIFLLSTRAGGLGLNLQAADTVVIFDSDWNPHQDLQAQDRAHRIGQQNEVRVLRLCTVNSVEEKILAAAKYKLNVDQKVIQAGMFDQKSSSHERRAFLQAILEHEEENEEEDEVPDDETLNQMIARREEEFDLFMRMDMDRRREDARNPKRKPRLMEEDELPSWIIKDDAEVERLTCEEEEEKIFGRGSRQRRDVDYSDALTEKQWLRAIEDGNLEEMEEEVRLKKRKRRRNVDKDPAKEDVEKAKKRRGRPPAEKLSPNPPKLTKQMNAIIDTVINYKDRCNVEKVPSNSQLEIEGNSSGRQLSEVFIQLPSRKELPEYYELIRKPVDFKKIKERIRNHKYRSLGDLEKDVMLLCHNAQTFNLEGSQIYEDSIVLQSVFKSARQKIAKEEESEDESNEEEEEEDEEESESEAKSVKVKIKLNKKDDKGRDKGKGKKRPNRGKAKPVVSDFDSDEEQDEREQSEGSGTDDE
T2 sequence (P51532 whole entry, the tested form may be a part): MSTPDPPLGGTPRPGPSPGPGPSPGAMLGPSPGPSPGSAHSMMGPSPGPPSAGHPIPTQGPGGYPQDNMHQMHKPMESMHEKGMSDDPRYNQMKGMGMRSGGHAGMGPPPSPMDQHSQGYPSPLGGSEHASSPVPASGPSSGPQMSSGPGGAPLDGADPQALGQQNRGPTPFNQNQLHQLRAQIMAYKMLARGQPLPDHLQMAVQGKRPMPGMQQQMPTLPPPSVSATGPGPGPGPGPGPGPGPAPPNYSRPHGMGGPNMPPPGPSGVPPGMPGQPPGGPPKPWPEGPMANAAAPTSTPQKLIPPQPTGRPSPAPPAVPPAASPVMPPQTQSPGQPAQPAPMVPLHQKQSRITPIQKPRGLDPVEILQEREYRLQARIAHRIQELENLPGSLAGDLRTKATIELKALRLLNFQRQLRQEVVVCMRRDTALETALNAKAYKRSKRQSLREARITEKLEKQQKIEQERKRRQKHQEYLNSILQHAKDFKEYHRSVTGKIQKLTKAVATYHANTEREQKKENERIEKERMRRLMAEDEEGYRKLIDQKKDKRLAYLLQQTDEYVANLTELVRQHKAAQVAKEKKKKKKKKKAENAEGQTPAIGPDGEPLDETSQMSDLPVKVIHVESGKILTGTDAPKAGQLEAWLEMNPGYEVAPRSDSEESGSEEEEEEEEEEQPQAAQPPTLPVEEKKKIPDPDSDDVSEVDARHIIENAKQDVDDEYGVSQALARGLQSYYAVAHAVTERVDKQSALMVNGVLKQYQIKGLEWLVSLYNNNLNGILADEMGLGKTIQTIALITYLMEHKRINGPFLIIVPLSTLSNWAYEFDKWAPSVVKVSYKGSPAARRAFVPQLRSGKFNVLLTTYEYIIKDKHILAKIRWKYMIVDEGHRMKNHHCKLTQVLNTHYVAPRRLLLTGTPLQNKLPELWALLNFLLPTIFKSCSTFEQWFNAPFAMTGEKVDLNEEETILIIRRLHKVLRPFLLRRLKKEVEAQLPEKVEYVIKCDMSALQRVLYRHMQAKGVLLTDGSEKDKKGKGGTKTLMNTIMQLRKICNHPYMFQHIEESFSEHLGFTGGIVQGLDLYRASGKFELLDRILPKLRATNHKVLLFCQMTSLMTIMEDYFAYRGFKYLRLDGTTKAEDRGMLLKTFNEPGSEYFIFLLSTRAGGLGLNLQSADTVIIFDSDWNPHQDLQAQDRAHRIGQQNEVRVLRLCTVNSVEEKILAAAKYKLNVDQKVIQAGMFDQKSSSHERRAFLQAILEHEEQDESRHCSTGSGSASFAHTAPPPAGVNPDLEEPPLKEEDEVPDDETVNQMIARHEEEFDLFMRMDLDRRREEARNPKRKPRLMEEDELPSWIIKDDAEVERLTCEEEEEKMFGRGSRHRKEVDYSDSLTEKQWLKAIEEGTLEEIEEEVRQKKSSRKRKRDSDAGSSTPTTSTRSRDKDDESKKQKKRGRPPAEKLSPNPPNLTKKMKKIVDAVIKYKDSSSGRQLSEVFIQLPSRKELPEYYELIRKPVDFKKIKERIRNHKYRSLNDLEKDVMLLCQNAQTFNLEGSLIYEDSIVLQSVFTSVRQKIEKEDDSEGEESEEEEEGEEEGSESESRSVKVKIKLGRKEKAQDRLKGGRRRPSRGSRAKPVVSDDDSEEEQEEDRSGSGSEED

| SMILES | DC50 [1] | Dmax [2] | DC50 [2] | BRM HiBit Degradation Maximum (%) [1] |
| --- | --- | --- | --- | --- |
| Cc1ncsc1-c1ccc([C@H](C)NC(=O)[C@@H]2C[C@@H](O)CN2C(=O)[C@@H](c2cc(OCC(=O)N3CC(c4cc5nnc(-c6ccccc6O)cc5s4)C3)no2)C(C)C)cc1 [Compound 106, (2S,4R)-4-hydroxy-1-((R)-2-(3-(2-(3-(3-(2-hydroxyphenyl)thieno[3,2-c]pyridazin-6-yl)azetidin-1-yl)-2-oxoethoxy)isoxazol-5-yl)-3-methylbutanoyl)-N-((S)-1-(4-(4-methylthiazol-5-yl)phenyl)ethyl)pyrrolidine-2-carboxamide] | ≥ 1 µM | ≥ 50% | ≥ 1 µM | C (“C” indicates maximum degradation < 50%) |
| Cc1ncsc1-c1ccc([C@H](C)NC(=O)[C@@H]2C[C@@H](O)CN2C(=O)[C@H](c2cc(C3CCN(C(=O)CN4CC(c5cc6cc(-c7ccccc7O)nnc6s5)C4)CC3)no2)C(C)C)cc1 [Compound 12] | ≥ 1 µM | < 50% | ≥ 1 µM | C (“C” indicates maximum degradation < 50%) |
| Cc1ncsc1-c1ccc([C@H](C)NC(=O)[C@@H]2C[C@@H](O)CN2C(=O)[C@@H](c2cc(OCCN3C[C@H]4C[C@@H](C3)[C@H]4c3cc4cc(-c5ccccc5O)nnc4s3)no2)C(C)C)cc1 [Compound 74, (2S,4R)-4-hydroxy-1-((R)-2-(3-(2-((1R,5S,6S)-6-(3-(2-hydroxyphenyl)thieno[2,3-c]pyridazin-6-yl)-3-azabicyclo[3.1.1]heptan-3-yl)ethoxy)isoxazol-5-yl)-3-methylbutanoyl)-N-((S)-1-(4-(4-methylthiazol-5-yl)phenyl)ethyl)pyrrolidine-2-carboxamide] | ≥ 1 µM | < 50% | ≥ 1 µM | C (“C” indicates maximum degradation < 50%) |
| Cc1ncsc1-c1ccc(CNC(=O)[C@@H]2C[C@@H](O)CN2C(=O)[C@@H](NC(=O)CCC(=O)N2CCC(c3cc4cc(-c5ccccc5O)nnc4s3)CC2)C(C)(C)C)cc1 [Compound 27] | ≥ 1 µM | < 50% | ≥ 1 µM | B (“B” indicates maximum degradation ≥ 50%) |
| Cc1ncsc1-c1ccc(CNC(=O)[C@@H]2C[C@@H](O)CN2C(=O)[C@@H](NC(=O)C2(F)CC2)C(C)(C)C)c(OCC(=O)N2CCC(c3cc4nnc(-c5ccccc5O)cc4s3)CC2)c1 [Compound 75, (2S,4R)-1-((S)-2-(1-fluorocyclopropane-1-carboxamido)-3,3-dimethylbutanoyl)-4-hydroxy-N-(2-(2-(4-(3-(2-hydroxyphenyl)thieno[3,2-c]pyridazin-6-yl)piperidin-1-yl)-2-oxoethoxy)-4-(4-methylthiazol-5-yl)benzyl)pyrrolidine-2-carboxamide] | ≥ 1 µM | < 50% | ≥ 1 µM | C (“C” indicates maximum degradation < 50%) |
| Cc1ncsc1-c1ccc(CNC(=O)[C@H]2C[C@H](O)CN2C(=O)[C@H](NC(=O)CCC(=O)N2CC(c3sc4nnc(-c5ccccc5O)cc4c3C)C2)C(C)(C)C)cc1 [Compound 20] | ≥ 1 µM | < 50% | ≥ 1 µM | C (“C” indicates maximum degradation < 50%) |
| Cc1ncsc1-c1ccc([C@H](C)NC(=O)[C@@H]2C[C@@H](O)CN2C(=O)[C@@H](c2cc(N3C[C@@H]4C[C@H]3CN4C(=O)[C@@H]3CCc4sc5nnc(-c6ccccc6O)cc5c4C3)no2)C(C)C)cc1 [Compound 44, (2S,4R)-4-hydroxy-1-((R)-2-(3-((1S,4S)-5-((R)-3-(2-hydroxyphenyl)-5,6,7,8-tetrahydrobenzo[4,5]thieno[2,3-c]pyridazine-6-carbonyl)-2,5-diazabicyclo[2.2.1]heptan-2-yl)isoxazol-5-yl)-3-methylbutanoyl)-N-((S)-1-(4-(4-methylthiazol-5-yl)phenyl)ethyl)pyrrolidine-2-carboxamide] | ≥ 0.1 µM | < 50% | ≥ 1 µM | B (“B” indicates maximum degradation ≥ 50%) |

Second part, led by results:

| DC50 [1] | Dmax [2] | DC50 [2] | SMILES | BRM HiBit Degradation Maximum (%) [1] |
| --- | --- | --- | --- | --- |
| < 0.01 µM | < 50% | ≥ 1 µM | Cc1ncsc1-c1ccc([C@H](C)NC(=O)[C@@H]2C[C@@H](O)CN2C(=O)[C@@H](c2cc(N3CCC(N4CC(c5cc6nnc(-c7ccccc7O)cc6s5)C4)CC3)no2)C(C)C)cc1 [Compound 105, (2S,4R)-4-hydroxy-1-((R)-2-(3-(4-(3-(3-(2-hydroxyphenyl)thieno[3,2-c]pyridazin-6-yl)azetidin-1-yl)piperidin-1-yl)isoxazol-5-yl)-3-methylbutanoyl)-N-((S)-1-(4-(4-methylthiazol-5-yl)phenyl)ethyl)pyrrolidine-2-carboxamide] | A (“A” indicates maximum degradation ≥ 75%) |
| ≥ 0.01 µM | < 50% | ≥ 1 µM | Cc1ncsc1-c1ccc([C@H](C)NC(=O)[C@@H]2C[C@@H](O)CN2C(=O)[C@@H](c2cc(OCCN3C[C@H]4C[C@@H]3C[C@@H]4c3sc4nnc(-c5ccccc5O)cc4c3C)no2)C(C)C)cc1 [Compound 58, (2S,4R)-4-hydroxy-1-[(2R)-2-(3-{2-[(1R,4S,5S)-5-[3-(2-hydroxyphenyl)-5-methylthieno[2,3-c]pyridazin-6-yl]-2-azabicyclo[2.2.1]heptan-2-yl]ethoxy}-1,2-oxazol-5-yl)-3-methylbutanoyl]-N-[(1S)-1-[4-(4-methyl-1,3-thiazol-5-yl)phenyl]ethyl]pyrrolidine-2-carboxamide] | A (“A” indicates maximum degradation ≥ 75%) |
| < 0.01 µM | ≥ 75% | ≥ 0.01 µM | Cc1ncsc1-c1ccc([C@H](C)NC(=O)[C@@H]2C[C@@H](O)CN2C(=O)[C@@H](c2cc(OCCN3CCN(c4sc5nnc(-c6ccccc6O)cc5c4C)CC3)no2)C(C)C)cc1 [Compound 66, (2S,4R)-4-hydroxy-1-((R)-2-(3-(2-(4-(3-(2-hydroxyphenyl)-5-methylthieno[2,3-c]pyridazin-6-yl)piperazin-1-yl)ethoxy)isoxazol-5-yl)-3-methylbutanoyl)-N-((S)-1-(4-(4-methylthiazol-5-yl)phenyl)ethyl)pyrrolidine-2-carboxamide] | A (“A” indicates maximum degradation ≥ 75%) |
| ≥ 0.01 µM | < 50% | ≥ 1 µM | Cc1ncsc1-c1ccc([C@H](C)NC(=O)[C@@H]2C[C@@H](O)CN2C(=O)[C@@H](NC(=O)c2cnc(N3CCC(c4sc5nnc(-c6ccccc6O)cc5c4C)CC3)nc2)C(C)(C)C)cc1 [Compound 65, N-((S)-1-((2S,4R)-4-hydroxy-2-(((S)-1-(4-(4-methylthiazol-5-yl)phenyl)ethyl)carbamoyl)pyrrolidin-1-yl)-3,3-dimethyl-1-oxobutan-2-yl)-2-(4-(3-(2-hydroxyphenyl)-5-methylthieno[2,3-c]pyridazin-6-yl)piperidin-1-yl)pyrimidine-5-carboxamide] | A (“A” indicates maximum degradation ≥ 75%) |
| ≥ 0.01 µM | < 50% | ≥ 1 µM | Cc1ncsc1-c1ccc([C@H](C)NC(=O)[C@@H]2C[C@@H](O)CN2C(=O)[C@@H](c2cc(N3CCC(C(=O)N4CC(c5sc6nnc(-c7ccccc7O)cc6c5C)C4)CC3)no2)C(C)C)cc1 [Compound 10] | A (“A” indicates maximum degradation ≥ 75%) |
| ≥ 0.01 µM | < 50% | ≥ 1 µM | Cc1ncsc1-c1ccc([C@H](C)NC(=O)[C@@H]2C[C@@H](O)CN2C(=O)[C@@H](c2cc(OCCN3C[C@@H]4[C@H](C3)[C@H]4c3cc4cc(-c5ccccc5O)nnc4s3)no2)C(C)C)cc1 [Compound 32] | A (“A” indicates maximum degradation ≥ 75%) |
| ≥ 0.01 µM | < 50% | ≥ 1 µM | Cc1ncsc1-c1ccc([C@H](C)NC(=O)[C@@H]2C[C@@H](O)CN2C(=O)[C@@H](c2cc(OCCN3CCC(c4sc5nnc(-c6ccccc6O)cc5c4Cl)CC3)no2)C(C)C)cc1 [Compound 90, (2S,4R)-1-((R)-2-(3-(2-(4-(5-chloro-3-(2-hydroxyphenyl)thieno[2,3-c]pyridazin-6-yl)piperidin-1-yl)ethoxy)isoxazol-5-yl)-3-methylbutanoyl)-4-hydroxy-N-((S)-1-(4-(4-methylthiazol-5-yl)phenyl)ethyl)pyrrolidine-2-carboxamide] | A (“A” indicates maximum degradation ≥ 75%) |
| < 0.01 µM | ≥ 75% | ≥ 0.01 µM | Cc1ncsc1-c1ccc([C@H](C)NC(=O)[C@@H]2C[C@@H](O)CN2C(=O)[C@@H](c2cc(C34CC(CN5CCC(c6sc7nnc(-c8ccccc8O)cc7c6C)CC5)(C3)C4)no2)C(C)C)cc1 [Compound 72, (2S,4R)-4-hydroxy-1-[(2R)-2-{3-[3-({4-[3-(2-hydroxyphenyl)-5-methylthieno[2,3-c]pyridazin-6-yl]piperidin-1-yl}methyl)bicyclo[1.1.1]pentan-1-yl]-1,2-oxazol-5-yl}-3-methylbutanoyl]-N-[(1S)-1-[4-(4-methyl-1,3-thiazol-5-yl)phenyl]ethyl]pyrrolidine-2-carboxamide] | A (“A” indicates maximum degradation ≥ 75%) |

From patent US20240376121A1, “COMPOUNDS AND USES THEREOF” (Foghorn Therapeutics Inc., priority 2021, published 2024)
